Key:
[1] = test system: 335 wild-type protein kinases; test: Kinase inhibition profiling, selectivity score; type: biochemical
Description: (§1) The analysis was performed by ProQinase (Freiburg, Germany).

PHKG2 = target: T1, PHKG2 (Homo sapiens, UniProt P15735); test: Kinase profiling; type: biochemical
T1 construct: purchased ProQinase (Freiburg, Germany)
T1 sequence (P15735 1-406): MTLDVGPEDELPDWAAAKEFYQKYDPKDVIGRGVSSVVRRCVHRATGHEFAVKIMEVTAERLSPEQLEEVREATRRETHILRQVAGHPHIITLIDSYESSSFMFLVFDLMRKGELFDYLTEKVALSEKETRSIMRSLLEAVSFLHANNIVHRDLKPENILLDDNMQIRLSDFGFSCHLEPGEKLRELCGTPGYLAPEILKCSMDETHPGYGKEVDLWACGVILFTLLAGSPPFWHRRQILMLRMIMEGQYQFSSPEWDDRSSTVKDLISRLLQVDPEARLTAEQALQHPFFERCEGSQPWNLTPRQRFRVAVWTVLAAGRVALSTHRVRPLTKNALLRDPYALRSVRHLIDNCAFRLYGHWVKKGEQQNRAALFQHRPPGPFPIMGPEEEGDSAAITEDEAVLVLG
Description: as §1

ABCB1 = test: PXR target gene mRNA expression in differentiated HepaRG cells (RT-qPCR); type: cell-based; conditions: 48 h
Description: (§2) HepaRG cells (Biopredic, Rennes, France) were cultivated in phenol red-free William’s E medium, supplemented with 10% FBS, 2 mM glutamine, 100 U/mL penicillin, 100 µg/mL streptomycin, 5 µg/mL insulin, and 50 µM hydrocortisone. For gene expression analyses, 1.0 × 10^5 cells were seeded per well of a 12-well plate. After reaching confluence, growth medium was supplemented with 2% DMSO, and cells were further cultivated for 2 weeks for differentiation into hepatocytes, as described previously. Afterward, cells were adapted to induction medium (growth medium with FBS reduced to 2% and 0.2% DMSO) for 48 h. Then chemical treatment was started for another 48 h, with daily medium change.
(§3) Total RNA was prepared from LS174T and HepaRG cells using the NucleoSpin RNA kit (Macherey-Nagel, Düren, Germany). RNA integrity was analyzed by formaldehyde-agarose gel electrophoresis. First strand cDNA was synthesized as described earlier. Relative quantification analyses were conducted with TaqMan RT-PCR utilizing the BioMark HD system and FLEX Six Gene Expression Integrated Fluidic Circuits (Fluidigm, South San Francisco, CA, USA) as described previously. TaqMan gene expression assays were either the commercially available predesigned assays Hs00184500_m1 (ABCB1) and Hs00604506_m1 (CYP3A4) (Thermo Fischer Scientific) or have been described previously: CYP2B6 [31] and 18S rRNA [39]. Data were analyzed as described previously. Gene expression levels were normalized to respective 18S rRNA levels.
(§4) Figure 7 Effects of novel PXR ligands on endogenous PXR target gene expression. […] (B) HepaRG cells were treated with 0.2% DMSO, 10 µM RIF, or 10 µM compound 100 or cotreated with 10 µM RIF and compound 100 for 48 h. mRNA expression was measured as described above.

CYP2B6 = test: as above; type: cell-based; conditions: 10 µM, 48 h
Description: as §2, §3, §4

CYP3A4 = test: as above; type: cell-based; conditions: 10 µM, 48 h
Description: as §2, §3, §4

SMILES: O=C(Nc1ccc(F)c(Nc2ccc3c(c2)CCCCC3=O)c1)c1cccc(F)c1 [Compound 109]
- Selectivity Score (< 50 % residual activity) ([1]; 1.0E-05 M): 0.024
- Selectivity Score (< 50 % residual activity) ([1]; 1.0E-06 M): 0.012
- Residual activity (PHKG2; 1.0E-05 M): 95 % of control
- Residual activity (PHKG2; 1.0E-06 M): 102 % of control

SMILES: O=C(Cc1ccccc1)Nc1ccc(F)c(Nc2ccc3c(c2)CCCCC3=O)c1 [Compound 100]
- effect on rifampicin-induced expression of ABCB1 (ABCB1; 10 µM compound + 10 µM rifampicin): only minor inhibitory effects
- expression of ABCB1 mRNA (ABCB1; 10 µM): induced the expression of ABCB1, CYP2B6, and CYP3A4
- expression of CYP2B6 mRNA (CYP2B6): induced the expression of ABCB1, CYP2B6, and CYP3A4
- expression of CYP3A4 mRNA (CYP3A4): induced the expression of ABCB1, CYP2B6, and CYP3A4
- Selectivity Score (< 50 % residual activity) ([1]; 1.0E-05 M): 0.015
- Selectivity Score (< 50 % residual activity) ([1]; 1.0E-06 M): 0.003
- Residual activity (PHKG2; 1.0E-05 M): 93 % of control
- Residual activity (PHKG2; 1.0E-06 M): 96 % of control

— article PMC9030254, “Target Hopping from Protein Kinases to PXR: Identification of Small-Molecule Protein Kinase Inhibitors as Selective Modulators of Pregnane X Receptor from TüKIC Library” (Cells, 2022)
